Experimental data reported in article PMC7613998, “Development of selective inhibitors of phosphatidylinositol 3-kinase C2α” (Nature Chemical Biology, 2022).

Legend:
Assay in all cases: biochemical
Set-up in all cases: SelectScreen Z'-LYTE purified kinase panel, per cent inhibition, mean of two points
Details in all cases: (μM)=Km app
CSK = CSK (Homo sapiens, UniProt P41240)
TYK2 = TYK2 (Homo sapiens, UniProt P29597)
PIM2 = PIM2 (Homo sapiens, UniProt Q9P1W9)
MET (cMet) = MET (cMet) (Homo sapiens, UniProt P08581)
BTK = BTK (Homo sapiens, UniProt Q06187)
AXL = target: T1, AXL (Homo sapiens, UniProt P30530)
T1 sequence (P30530 1-894): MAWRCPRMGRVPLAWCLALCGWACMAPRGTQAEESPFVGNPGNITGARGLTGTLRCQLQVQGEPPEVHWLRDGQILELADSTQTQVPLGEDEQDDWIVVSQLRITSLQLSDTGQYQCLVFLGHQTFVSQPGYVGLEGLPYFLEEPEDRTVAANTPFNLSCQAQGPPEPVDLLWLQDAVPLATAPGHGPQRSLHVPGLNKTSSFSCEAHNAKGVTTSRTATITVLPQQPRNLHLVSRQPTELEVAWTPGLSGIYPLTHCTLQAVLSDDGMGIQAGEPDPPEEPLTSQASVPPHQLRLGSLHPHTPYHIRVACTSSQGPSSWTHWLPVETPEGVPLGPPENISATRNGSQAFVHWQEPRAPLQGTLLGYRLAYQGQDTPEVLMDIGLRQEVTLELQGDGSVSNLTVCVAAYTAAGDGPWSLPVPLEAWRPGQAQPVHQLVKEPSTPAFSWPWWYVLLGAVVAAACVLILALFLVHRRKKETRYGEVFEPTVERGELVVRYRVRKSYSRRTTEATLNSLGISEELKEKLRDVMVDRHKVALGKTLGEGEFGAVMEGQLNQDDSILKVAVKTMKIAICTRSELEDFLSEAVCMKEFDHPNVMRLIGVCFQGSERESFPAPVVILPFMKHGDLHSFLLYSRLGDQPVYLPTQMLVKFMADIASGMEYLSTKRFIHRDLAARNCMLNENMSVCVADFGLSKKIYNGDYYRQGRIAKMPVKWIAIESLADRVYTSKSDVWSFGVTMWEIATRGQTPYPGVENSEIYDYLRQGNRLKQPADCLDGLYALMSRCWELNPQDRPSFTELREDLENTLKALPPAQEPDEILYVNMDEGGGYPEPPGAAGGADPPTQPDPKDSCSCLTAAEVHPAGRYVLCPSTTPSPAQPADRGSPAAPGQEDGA

EGFR (ErbB1) = EGFR (ErbB1) (Homo sapiens, UniProt P00533)
PLK3 = PLK3 (Homo sapiens, UniProt Q9H4B4)
DNA-PK = target: T2, DNA-PK (Homo sapiens, UniProt P78527)
T2 construct: gene PRKDC

CHEK1 (CHK1) = target: T3, CHEK1 (CHK1) (Homo sapiens, UniProt O14757)
T3 sequence (O14757 1-476): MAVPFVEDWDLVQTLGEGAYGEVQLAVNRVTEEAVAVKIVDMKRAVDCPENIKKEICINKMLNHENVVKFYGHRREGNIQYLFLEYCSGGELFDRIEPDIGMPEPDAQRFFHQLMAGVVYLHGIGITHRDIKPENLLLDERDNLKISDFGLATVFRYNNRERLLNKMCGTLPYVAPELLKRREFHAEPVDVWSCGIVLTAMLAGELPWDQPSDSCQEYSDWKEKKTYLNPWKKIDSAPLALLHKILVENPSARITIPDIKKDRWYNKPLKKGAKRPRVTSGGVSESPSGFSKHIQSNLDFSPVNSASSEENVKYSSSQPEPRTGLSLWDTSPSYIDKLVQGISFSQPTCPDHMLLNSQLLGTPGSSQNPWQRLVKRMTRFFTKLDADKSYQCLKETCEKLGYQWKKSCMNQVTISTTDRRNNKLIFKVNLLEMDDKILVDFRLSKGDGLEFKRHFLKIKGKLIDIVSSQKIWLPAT

FGFR3 = FGFR3 (Homo sapiens, UniProt P22607)
PIM1 = PIM1 (Homo sapiens, UniProt P11309)
KIT = KIT (Homo sapiens, UniProt P10721)
Chain of KIT (P10721 whole entry): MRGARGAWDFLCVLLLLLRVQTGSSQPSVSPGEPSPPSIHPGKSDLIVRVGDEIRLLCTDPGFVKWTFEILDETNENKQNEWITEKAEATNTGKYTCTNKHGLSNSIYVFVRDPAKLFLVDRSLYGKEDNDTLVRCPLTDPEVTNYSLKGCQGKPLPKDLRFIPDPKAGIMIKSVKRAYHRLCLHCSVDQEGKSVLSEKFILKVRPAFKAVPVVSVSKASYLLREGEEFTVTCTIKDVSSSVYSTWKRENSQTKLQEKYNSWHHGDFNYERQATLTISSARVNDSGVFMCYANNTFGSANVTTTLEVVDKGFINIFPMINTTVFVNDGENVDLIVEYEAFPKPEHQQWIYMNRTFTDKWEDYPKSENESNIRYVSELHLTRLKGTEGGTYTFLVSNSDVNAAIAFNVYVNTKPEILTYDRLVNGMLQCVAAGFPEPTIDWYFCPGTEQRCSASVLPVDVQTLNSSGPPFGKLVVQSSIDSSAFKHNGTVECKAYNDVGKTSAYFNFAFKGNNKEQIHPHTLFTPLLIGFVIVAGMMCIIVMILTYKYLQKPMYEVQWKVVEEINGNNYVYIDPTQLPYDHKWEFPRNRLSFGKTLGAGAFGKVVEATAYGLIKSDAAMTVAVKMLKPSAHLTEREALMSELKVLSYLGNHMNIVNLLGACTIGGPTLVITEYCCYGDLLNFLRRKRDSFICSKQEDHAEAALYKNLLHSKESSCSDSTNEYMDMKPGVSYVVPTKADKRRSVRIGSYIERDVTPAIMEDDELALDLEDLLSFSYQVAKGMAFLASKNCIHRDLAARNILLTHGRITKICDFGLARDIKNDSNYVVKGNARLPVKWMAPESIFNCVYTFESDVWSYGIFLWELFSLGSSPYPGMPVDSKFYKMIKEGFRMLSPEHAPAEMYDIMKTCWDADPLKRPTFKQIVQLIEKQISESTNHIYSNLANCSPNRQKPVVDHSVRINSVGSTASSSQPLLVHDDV

Chain of MET (cMet) (P08581 whole entry): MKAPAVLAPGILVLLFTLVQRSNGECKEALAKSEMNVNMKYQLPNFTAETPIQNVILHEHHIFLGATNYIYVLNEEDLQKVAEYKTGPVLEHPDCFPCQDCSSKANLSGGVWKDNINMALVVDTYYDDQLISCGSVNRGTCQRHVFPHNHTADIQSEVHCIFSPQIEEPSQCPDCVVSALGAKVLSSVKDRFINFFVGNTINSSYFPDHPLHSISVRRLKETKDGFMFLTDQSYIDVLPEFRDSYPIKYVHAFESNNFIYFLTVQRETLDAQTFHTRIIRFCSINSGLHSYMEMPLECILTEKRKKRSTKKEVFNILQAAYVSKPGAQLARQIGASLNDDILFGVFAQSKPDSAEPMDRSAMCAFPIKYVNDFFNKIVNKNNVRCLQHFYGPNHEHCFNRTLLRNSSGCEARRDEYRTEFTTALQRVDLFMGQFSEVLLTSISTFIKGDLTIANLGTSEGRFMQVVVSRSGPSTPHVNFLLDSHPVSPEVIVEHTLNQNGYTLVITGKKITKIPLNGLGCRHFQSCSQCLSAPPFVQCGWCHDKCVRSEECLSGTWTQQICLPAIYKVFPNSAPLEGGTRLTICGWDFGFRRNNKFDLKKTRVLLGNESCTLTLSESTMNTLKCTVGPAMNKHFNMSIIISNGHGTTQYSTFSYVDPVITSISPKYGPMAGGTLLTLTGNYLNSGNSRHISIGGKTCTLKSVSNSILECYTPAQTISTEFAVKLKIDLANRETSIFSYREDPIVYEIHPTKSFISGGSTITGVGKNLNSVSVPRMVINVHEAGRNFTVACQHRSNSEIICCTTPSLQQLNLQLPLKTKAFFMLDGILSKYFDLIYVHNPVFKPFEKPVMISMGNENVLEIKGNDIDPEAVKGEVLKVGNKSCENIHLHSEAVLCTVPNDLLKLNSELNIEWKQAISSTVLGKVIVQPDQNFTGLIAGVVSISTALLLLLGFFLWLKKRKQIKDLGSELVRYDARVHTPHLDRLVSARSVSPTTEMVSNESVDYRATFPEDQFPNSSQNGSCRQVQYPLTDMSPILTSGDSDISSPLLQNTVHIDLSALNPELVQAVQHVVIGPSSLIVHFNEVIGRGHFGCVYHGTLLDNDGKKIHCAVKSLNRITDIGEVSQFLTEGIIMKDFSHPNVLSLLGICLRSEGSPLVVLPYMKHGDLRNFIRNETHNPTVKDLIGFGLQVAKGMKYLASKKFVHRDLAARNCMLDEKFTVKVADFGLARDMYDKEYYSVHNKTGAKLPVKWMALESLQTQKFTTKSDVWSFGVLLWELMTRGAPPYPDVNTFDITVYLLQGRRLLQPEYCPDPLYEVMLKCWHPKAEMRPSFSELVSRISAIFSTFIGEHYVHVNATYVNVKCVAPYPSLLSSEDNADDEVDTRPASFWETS
Chain of PLK3 (Q9H4B4 whole entry): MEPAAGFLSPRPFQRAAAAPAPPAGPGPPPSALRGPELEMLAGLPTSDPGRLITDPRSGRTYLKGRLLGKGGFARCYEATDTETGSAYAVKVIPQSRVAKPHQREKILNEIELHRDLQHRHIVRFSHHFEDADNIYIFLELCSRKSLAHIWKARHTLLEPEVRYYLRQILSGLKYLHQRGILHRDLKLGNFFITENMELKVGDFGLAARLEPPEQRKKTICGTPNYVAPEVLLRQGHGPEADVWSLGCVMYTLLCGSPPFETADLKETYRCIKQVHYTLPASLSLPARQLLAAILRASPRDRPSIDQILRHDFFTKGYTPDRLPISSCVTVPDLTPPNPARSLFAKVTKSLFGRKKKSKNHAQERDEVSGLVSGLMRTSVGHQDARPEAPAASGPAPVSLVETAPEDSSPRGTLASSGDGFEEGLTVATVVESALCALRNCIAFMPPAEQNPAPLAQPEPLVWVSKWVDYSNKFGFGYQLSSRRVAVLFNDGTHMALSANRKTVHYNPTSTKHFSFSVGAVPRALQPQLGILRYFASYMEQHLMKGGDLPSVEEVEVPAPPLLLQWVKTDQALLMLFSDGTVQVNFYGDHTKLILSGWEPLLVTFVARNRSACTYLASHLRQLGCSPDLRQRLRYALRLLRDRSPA
Chain of PIM1 (P11309 whole entry): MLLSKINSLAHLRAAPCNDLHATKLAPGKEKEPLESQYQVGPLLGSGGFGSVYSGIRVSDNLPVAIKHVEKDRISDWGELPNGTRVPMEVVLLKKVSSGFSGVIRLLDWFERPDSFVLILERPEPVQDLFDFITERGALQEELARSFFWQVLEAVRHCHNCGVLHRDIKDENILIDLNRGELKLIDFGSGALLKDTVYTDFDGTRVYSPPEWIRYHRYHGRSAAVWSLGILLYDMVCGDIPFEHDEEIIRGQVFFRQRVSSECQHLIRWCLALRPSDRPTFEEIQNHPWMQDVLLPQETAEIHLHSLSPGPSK
Chain of PIM2 (Q9P1W9 whole entry): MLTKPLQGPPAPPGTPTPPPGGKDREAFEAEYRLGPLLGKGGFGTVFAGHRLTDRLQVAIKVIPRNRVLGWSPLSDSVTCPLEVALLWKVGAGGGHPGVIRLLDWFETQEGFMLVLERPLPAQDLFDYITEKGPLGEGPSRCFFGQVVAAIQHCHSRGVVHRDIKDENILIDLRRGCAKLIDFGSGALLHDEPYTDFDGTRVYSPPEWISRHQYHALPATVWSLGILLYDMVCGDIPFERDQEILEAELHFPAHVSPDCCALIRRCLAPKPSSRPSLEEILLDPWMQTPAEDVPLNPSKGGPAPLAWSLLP
Chain of BTK (Q06187 whole entry): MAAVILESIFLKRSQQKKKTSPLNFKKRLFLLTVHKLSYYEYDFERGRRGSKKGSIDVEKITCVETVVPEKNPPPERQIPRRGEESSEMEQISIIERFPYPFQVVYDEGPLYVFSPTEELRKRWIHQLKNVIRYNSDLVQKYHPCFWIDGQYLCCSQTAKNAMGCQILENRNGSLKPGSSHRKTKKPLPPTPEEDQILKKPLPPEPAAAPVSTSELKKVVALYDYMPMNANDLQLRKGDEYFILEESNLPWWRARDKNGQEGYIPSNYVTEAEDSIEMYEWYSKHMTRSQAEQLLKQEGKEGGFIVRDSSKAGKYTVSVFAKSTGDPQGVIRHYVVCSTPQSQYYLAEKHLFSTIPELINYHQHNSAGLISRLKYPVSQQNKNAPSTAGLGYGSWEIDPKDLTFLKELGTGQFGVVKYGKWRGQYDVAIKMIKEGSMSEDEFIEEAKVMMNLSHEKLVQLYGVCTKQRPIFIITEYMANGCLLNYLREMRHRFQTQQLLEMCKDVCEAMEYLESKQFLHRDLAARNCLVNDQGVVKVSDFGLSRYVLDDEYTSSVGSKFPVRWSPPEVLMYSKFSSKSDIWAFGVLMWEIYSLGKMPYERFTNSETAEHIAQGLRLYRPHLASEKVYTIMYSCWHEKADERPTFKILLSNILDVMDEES
Chain of CSK (P41240 whole entry): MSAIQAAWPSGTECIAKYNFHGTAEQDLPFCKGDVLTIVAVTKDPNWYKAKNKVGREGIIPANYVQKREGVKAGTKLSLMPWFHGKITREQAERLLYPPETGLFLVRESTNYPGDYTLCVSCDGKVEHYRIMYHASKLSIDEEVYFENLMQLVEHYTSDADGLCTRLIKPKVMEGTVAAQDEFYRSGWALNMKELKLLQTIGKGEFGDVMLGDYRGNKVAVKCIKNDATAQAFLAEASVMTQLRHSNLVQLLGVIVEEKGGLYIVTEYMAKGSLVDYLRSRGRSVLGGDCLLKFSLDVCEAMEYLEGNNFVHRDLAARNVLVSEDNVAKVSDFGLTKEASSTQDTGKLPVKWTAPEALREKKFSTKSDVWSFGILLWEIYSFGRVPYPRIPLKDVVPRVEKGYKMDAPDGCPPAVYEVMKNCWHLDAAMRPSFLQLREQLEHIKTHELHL

SMILES	inhibition at 1 µM (CSK) [%]	inhibition at 3 µM (CSK) [%]	inhibition at 10 µM (CSK) [%]	inhibition at 1 µM (TYK2) [%]	inhibition at 3 µM (TYK2) [%]	inhibition at 10 µM (TYK2) [%]	inhibition at 1 µM (PIM2) [%]	inhibition at 3 µM (PIM2) [%]	inhibition at 10 µM (PIM2) [%]	inhibition at 1 µM (MET (cMet)) [%]	inhibition at 3 µM (MET (cMet)) [%]	inhibition at 10 µM (MET (cMet)) [%]	inhibition at 1 µM (BTK) [%]	inhibition at 3 µM (BTK) [%]	inhibition at 10 µM (BTK) [%]	inhibition at 1 µM (AXL) [%]	inhibition at 3 µM (AXL) [%]	inhibition at 10 µM (AXL) [%]	inhibition at 1 µM (EGFR (ErbB1)) [%]	inhibition at 3 µM (EGFR (ErbB1)) [%]	further results
CS(=O)(=O)Nc1cccc(-c2csc(NC(=O)CSc3nc4nccnc4c(=O)n3CCc3ccccc3)n2)c1 [compound 3, PITCOIN3]	9.48	7.4	6.13	3.78	-2.18	4.5	-0.888	-5.98	-4.75	4.73	8.1	-2.17	3.1	6.59	3.91	-4.95	-1.87	-3.45	-2.95	6.63	inhibition at 10 µM (EGFR (ErbB1)): 0.555%; inhibition at 1 µM (PLK3): 3.58%; inhibition at 3 µM (PLK3): 4.83%; inhibition at 10 µM (PLK3): 4.26%; inhibition at 1 µM (DNA-PK): 11%; inhibition at 3 µM (DNA-PK): 23.7%; inhibition at 10 µM (DNA-PK): 23.3%; inhibition at 1 µM (CHEK1 (CHK1)): -7.7%; inhibition at 3 µM (CHEK1 (CHK1)): -2.83%; inhibition at 10 µM (CHEK1 (CHK1)): -11.2%; inhibition at 1 µM (FGFR3): -8.51%; inhibition at 3 µM (FGFR3): 0.972%; inhibition at 10 µM (FGFR3): 8.3%; inhibition at 1 µM (PIM1): -8.14%; inhibition at 3 µM (PIM1): 9.01%; inhibition at 10 µM (PIM1): 5.45%; inhibition at 1 µM (KIT): -9.5%; inhibition at 3 µM (KIT): 14.5%; inhibition at 10 µM (KIT): -3.62%
O=C(CSc1nc2nccnc2c(=O)n1CCc1ccccc1)Nc1nccs1 [compound 1, PITCOIN1]	3.79	4.7	4.31	-4.9	-7.09	-1.29	-5.29	-3.77	-7.86	4.52	-1.8	1.23	6.72	3.08	2.73	-3.88	-5.8	-2.92	2.09	1.39	inhibition at 10 µM (EGFR (ErbB1)): -0.671%; inhibition at 1 µM (PLK3): 3.02%; inhibition at 3 µM (PLK3): 3.24%; inhibition at 10 µM (PLK3): 5.6%; inhibition at 1 µM (DNA-PK): 13.4%; inhibition at 3 µM (DNA-PK): 14.1%; inhibition at 10 µM (DNA-PK): 12.5%; inhibition at 1 µM (CHEK1 (CHK1)): -13.5%; inhibition at 3 µM (CHEK1 (CHK1)): -11.6%; inhibition at 10 µM (CHEK1 (CHK1)): -3.01%; inhibition at 1 µM (FGFR3): 7.72%; inhibition at 3 µM (FGFR3): -7.09%; inhibition at 10 µM (FGFR3): -15.3%; inhibition at 1 µM (PIM1): 8.8%; inhibition at 3 µM (PIM1): 5.6%; inhibition at 10 µM (PIM1): -0.465%; inhibition at 1 µM (KIT): -11.3%; inhibition at 3 µM (KIT): 5.95%; inhibition at 10 µM (KIT): -5.32%
